Test results published in US20210361628A1, “2-OXOTHIAZOLE COMPOSITIONS FOR TREATMENT OF FIBROTIC DISEASE” (Avexxin AS, priority 2018, published 2021).
pIC50: −log10 of the molar value.

How the values were obtained:
[1] = system: α-SMA mRNA in RMC (rat mesangial cells); test: TGF-β1 induced α-SMA mRNA expression in RMC mesangial cell line (qRT-PCR); format: cell-based; settings: 5 ng/ml TGF-β1 for 24 h, not significant
Experimental: (§1) RMC (rat mesangial cells, ATCC® CRL-2573™) were maintained in DMEM with 4500 mg/L glucose (Sigma), 15% FBS, L-glutamine, and 0.4 mg/ml G418. For experiments, 3×10^5 cells/well were seeded in 6-well plates. After five days, post-confluent cells were serum starved for 24 h. They were then pre-incubated with inhibitors for 90 min, before they were treated with 5 ng/ml TGF-β1 for 24 h.
(§2) Total RNA was isolated using the RNeasy Mini Kit (Qiagen). cDNA synthesis was performed with 1 μg total RNA in 20 μl reaction of QuantiTect Reverse Transcription Kit (Qiagen). After synthesis, cDNA was diluted 1:6 with RNase-free water. qRT-PCR was performed with LightCycler 480 SYBR Green I Master (Roche), and the qRT-PCR analyses were carried out using the Lightcycler 96 system (Roche).

[2] = system: PGE2 production in human PBMC; test: LPS-induced PGE2 production in human PBMC (EIA); format: cell-based; settings: LPS 10 ng/mL, 72 hrs
Experimental: Blood was recruited from healthy donors at St. Olavs Hospital HF, the Bloodbank (project approved by Regional Ethical Committee of Mid-Norway; #2016/553). Peripheral blood mononuclear cells (PBMC) were isolated using SepMate™ separation tubes with LymphoPrep density gradient medium according to the STEMCELL Technology recommendations. For experiments, 1×10^6 cells/well/1 mL RPMI medium supplemented with 5% FBS, 0.3 mg/ml glutamine and 0.1 mg/ml gentamicin with- or without inhibitor. Treatments were added 2 hours prior to the addition of lipopolysaccharides as a potent inducer of inflammation (LPS from E. coli 026:B6 γ-irradiated, Sigma-Aldrich, #L2654). Following treatment (72 hrs., 37° C., 5% CO2), the cell suspensions were centrifuged to isolate the supernatant from the cell fraction. Samples were stored at −80° C. until analysis.
PBMC supernatants were analyzed by enzyme-linked immunosorbent assay (EIA) for PGE2 (Cayman #514010), according to the manufacturers protocols. PBMC supernatants were assayed at dilutions of 1:100, except supernatants from non-LPS treated PBMC that were assayed undiluted in all assays. Supernatants were hybridized over-night incubation, enzymatic conversion of substrate were read at OD420 nm. Data were processed using a 4-parameter logistic fit model.

[3] = system: PGE2 in rat renal mesangial cells; test: IL-1 induced PGE2 in rat renal mesangial cells (EIA); format: cell-based; settings: Mesangial cell, IL-1 stimulation
Experimental: Cell culture of rat renal mesangial cells were isolated, characterized and cultured as previously described (Pfeilschifter eteil., e1984).84ERLINK “htmesangial cells in 24-well plates were pretreated for 90library.wiley.com/doi/full/10.1111/Compound A before stimulation in a volume of 0.5 mL with IL-1eforenM, Cell Concept GmbH) to induce PGE2Hn in a volume of 0.5 mL with ILcom/doi/full^0C, 5% CO2), the cell suspensions were centrifuged to isolate the supernatant from the cell fraction. Samples were stored at −80° C. until analysis.
Rat mesangial cell supernatants were analyzed by EIA for PGE2 (Assay Designs, BIOTREND Chemikalien GmbH), according to the manufacturers protocols. Data were calculated as pg of PGE2 per 1.3×10^5 cells which was the cell number per well.

[4] = system: Ptgs2 mRNA in MRC-5 cells; test: TGF-β1 induced Ptgs2 mRNA expression in MRC-5 cells (qRT-PCR); format: cell-based, human; settings: 5 μM, 2 ng/ml TGF-β1 for 24 h
Experimental: MRC-5 (human lung fibroblast, ATCC® CCL-171™) were maintained in MEM with 10% FBS, L-glutamine, and gentamicin. For experiments, 1×10^5 cells/well were seeded in 6-well plates. After two days, pre-confluent cells were serum starved for 24 h. They were then pre-incubated with inhibitors for 90 min, before they were treated with 2 ng/ml TGF-β1 for 24 h.
as §2

[5] = system: Ptgs2 mRNA in RMC (rat mesangial cells); test: TGF-β1 induced Ptgs2 mRNA expression in RMC (qRT-PCR); format: cell-based; settings: 5 μM, 5 ng/ml TGF-β1 for 24 h
Experimental: as §1, §2

[6] = system: α-SMA mRNA in NRK-49F cells; test: TGF-β1 induced α-SMA mRNA expression in NRK-49F cells (qRT-PCR); format: cell-based, rat; settings: 5 μM, 10 ng/ml TGF-β1 for 24 h
Experimental: NRK-49F (normal rat kidney fibroblasts, ATCC® CRL-1570™) were maintained in DMEM with 4500 mg/L glucose, 5% FBS, L-glutamine, and gentamicin. For experiments, 3×10^5 cells/well were seeded in 6-well plates. After three days, post-confluent cells were serum starved for 24 h. They were then pre-incubated with inhibitors for 90 min, before they were treated with 10 ng/ml TGF-β1 for 24 h (mRNA-expression).
as §2

[7] = read-out: estimated IC50 of PGE2 inhibition

pIC50 [3, 7]: 6.05
SMILES: CCCCCCCOc1ccc(OCC(=O)c2nc(C(=O)OC)cs2)cc1 [Compound A]
reduction of α-SMA mRNA expression [1]: around 35%
PGE2 production ([2]; 10 μM (highest dose), LPS alone 18185+/−11200 pg/mL): 510 ± 406 pg/mL
pIC50 [2, 7]: 6.36
inhibition at 10 µM ([3]; 10 μM): 65%
Ptgs2 expression [4]: reduced Ptgs2 expression
Ptgs2 mRNA levels [5]: seem to reduce Ptgs2 mRNA levels
inhibition of TGF-β1 induced expression of α-SMA mRNA [6]: 50%
